Laboratory results from patent publication US10913774B2, “Cyclic peptide binder against oncogenic K-Ras” (California Institute of Technology, priority 2015, dated 2021).
Entries after “also recorded” stand apart in the source; their conditions may differ.

Tests used:
K-Ras G12D [1] = molecular target: T1, K-Ras G12D (Homo sapiens, UniProt P01116, G12D); assay: ELISA binding assay of biotinylated cyclic peptides to K-Ras G12D
Protocol: For ELISA assays, 1 μM of the biotinylated hit peptides were first immobilized onto Neutravidin ELISA plates (Pierce) for 2 hours at room temperature in binding buffer (TBST with 0.1% BSA). […] After washing three times with TBST the plate was then treated with a 1:1000 dilution of the anti-RAS rabbit mAb (Cell Signaling Technology) in binding buffer for thirty minutes, washed three times with TBST, incubated with anti-Rabbit-HRP secondary antibody (Cell Signaling Technology) for thirty minutes and developed with TMB substrate (KPL) for five to ten minutes. The absorbance of samples at 450 nm wavelength was measured using a spectrophotometer.

K-Ras G12D [2] = molecular target: T1, K-Ras G12D; assay: Western blot of K-Ras G12D protein levels in Panc 08.13 cancer cells after peptide treatment; format: cell-based; details: Panc 08.13 cells (homozygous K-Ras G12D), 30 minutes treatment, 0.3 mM
Excerpt: Example 5. Degradation of K-Ras G12D using Cyclic Peptides. […] Proteolysis-targeting chimeras (PROTACs) using Hif and other proteins are described in Toure and Crews, 2016, Angew. Chem. Int. Ed, 55:2-10, the entire contents of which are incorporated herein by reference. The 7b-Hif PROTAC was further conjugated with the HIV-TAT cell-penetrating peptide […] (SEQ ID NO: 24).
Cell culture. Panc 08.13 cell lines were purchased from American Type Culture collection and cultured as specified by the provider.
Immunoblotting. Western blots were performed according to standard protocols. Briefly, cells were lysed with cell lysis buffer (Cell Signaling Technology) containing protease and phosphatase inhibitors (Cell Signaling Technology). Cell lysates were quantified with a Bradford protein assay (Thermo Scientific) and prepared for gel electrophoresis in Laemmli sample buffer and reducing agent. 20 μg of cell lysate were added to precast polyacrylamide gels (Bio-Rad) and proteins were separated by electrophoresis followed by transfer to PVDF membrane. Membranes were then blocked and probed with an anti-Ras or anti-Tubulin primary antibody followed by horseradish peroxidase-conjugated secondary antibody (Cell Signaling Technology). The bands were visualized by chemiluminescence (Thermo Scientific).

Row | Compound | binding to K-Ras G12D in ELISA (absorbance units), result in words (K-Ras G12D [1]) | levels of K-Ras G12D protein by Western blot (K-Ras G12D [2])
1 | CC(C)C[C@@H]1NC(=O)[C@@H](N)Cc2cn(nn2)CCCC[C@@H](C(=O)NCCCOCCOCCOCCCNC(=O)CCCC[C@@H]2SC[C@@H]3NC(=O)N[C@@H]32)NC(=O)[C@H](CCCNC(=N)N)NC(=O)[C@H](CC(=O)O)NC(=O)CNC(=O)[C@H](CCCNC(=N)N)NC1=O [7b, Pra-LRGDR-Az4-PEG-Biotin] | strongest binding fluorescence; also recorded: highest affinity | 
2 | CC(C)C[C@@H]1NC(=O)[C@@H](N)Cc2cn(nn2)CCCC[C@@H](C(=O)NCCCOCCOCCOCCCNC(=O)CCCC[C@@H]2SC[C@@H]3NC(=O)N[C@@H]32)NC(=O)[C@H](CCCNC(=N)N)NC(=O)[C@@H]2CCCN2C(=O)CNC(=O)[C@H](CCCNC(=N)N)NC1=O [7b5, Pra-LRGPR-Az4-PEG-Biotin] |  | induce proteasomal degradation of K-Ras G12D
